Source: publication PMC10226132, “First-in-Class Selective Inhibitors of the Lysine Acetyltransferase KAT8” (Journal of Medicinal Chemistry, 2023)

Key:
KAT2B = target: T1, KAT2B (Homo sapiens, UniProt Q92831); experiment: HotSpot KAT assay, KAT2B; type: biochemical; details: enzyme 25 nM; NI = no inhibition at 200 μM; mean ± SD of three independent experiments
T1 construct: KAT2B (aa 492–658, 25 nM); purchased Reaction Biology Corporation
Procedure: The effects of the compounds on other KATs were determined using the HotSpot KAT assay (Reaction Biology Corporation, Malvern, PA, USA) according to the supplier’s procedure. The recombinant catalytic domains of human KAT2A (aa 323–837, 15 nM), KAT2B (aa 492–658, 25 nM), KAT3B (aa 1284–1672, 1 nM), KAT6A (aa 488–778, 10 nM), KAT6B (aa 657–1069, 10 nM), and full length human KAT5 (25 nM) and KAT7 (25 nM) were used. Each enzyme was incubated with the relevant histone peptide [H3 peptide for KAT2A, KAT2B, KAT3B, KAT6A, and KAT7 (2.5–5 μM, depending on the KAT isoform); H2A peptide for KAT5 (1.25 μM); H4 peptide for KAT6B (2.5 μM)] as a substrate and radio-isotope-labeled [^3H]Acetyl-CoA (0.2–1.5 μM, depending on the KAT isoform) as an acetyl donor in the assay buffer [50 mM Tris–HCl (pH 8.0), 50 mM NaCl, 0.1 mM EDTA, 1 mM DTT, 0.1 mM PMSF, 1% DMSO] for 1 h at 30 °C in the presence or absence of various compounds (1% DMSO final) titrated in a 2-fold serial dilution starting at 200 μM. Histone peptide acetylation was assessed by liquid scintillation counting using a Tri-Carb 2800TR Liquid Scintillation Analyzer (Perkin Elmer). Experiments were performed in biological triplicates. Signal reduction compared to control was plotted (as inhibition percentage) as a function of compound concentration. In cases in which an IC50 was calculated, the values were fitted by nonlinear regression (GraphPad Prism 8.0).

H1299 cells = experiment: MTT cell proliferation assay, H1299; type: cell-based, human; details: 72 h treatment, MTT
Source text: (§1) Human commercially available AML U937, breast cancer MCF7, lung adenocarcinoma NCI-H460, H1299 and A-549, glioblastoma U251, B lymphocyte AHH1 cell lines were maintained in compete 10% foetal bovine serum (FBS,) RPMI 1640 (Euroclone, Milan, IT) medium. Human commercially available colon cancer HCT116 and HT29 lines and cervix adenocarcinoma HeLa cells were maintained in compete 10% FBS Dulbecco’s Modified Eagle Medium (DMEM) high glucose medium (Euroclone). L-Glutamine, FBS, and penicillin streptomycin mixture added to medium were obtained from Euroclone. All cell lines were cultured at 37 °C in a humidified atmosphere of 5% CO2:95% air and were tested for mycoplasma contamination routinely by RT-PCR.
(§2) For analysis of cell proliferation, cells were plated in sextuplicate on 96-well plates in complete media. After 24 h, cells were exposed to different drugs for 72 h. The inhibitory effect of different drugs was assessed by MTT (Sigma, St. Louis, MO, USA) colorimetric assays as previously reported.[67] Aqueous DMSO (0.5% v/v) was used as a control (untreated). The results are reported as “viability of drug-treated cells/viability of untreated cells” × 100 and represent the average ±SD of three independent experiments. IC50 values were using fitted by nonlinear regression using GraphPad Prism 8.0.

U937 cells [1] = experiment: MTT cell proliferation assay, U937; type: cell-based, human; details: 72 h treatment, MTT
Source text: as §1, §2

A549 cells = experiment: MTT cell proliferation assay, A549; type: cell-based, human; details: 72 h treatment, MTT
Source text: as §1, §2

[2] = test system: human intestinal epithelial cells (InEpC); experiment: Proliferation of human intestinal epithelial cells (InEpC); type: cell-based; details: 25, 50, 100, 200 μM, 72 h
Procedure: as §2

[3] = test system: normal human lung fibroblasts (NHLF); experiment: Proliferation of normal human lung fibroblasts (NHLF); type: cell-based; details: 25, 50, 100, 200 μM, 72 h
Procedure: as §2

KAT8 = target: T2, KAT8 (Homo sapiens, UniProt Q9H7Z6); experiment: Radioactive KAT8 inhibition assay; type: biochemical; details: read-out: IC50 KAT8 (5 nM); enzyme 5 nM; 2-fold serial dilution from 200 μM; NI = no inhibition at 200 μM; mean ± SD of three independent experiments
T2 construct: using the previously purified KAT8 (173–458, 5 nM); 6xHis tag with TEV protease cleavage site (N, cleaved yes); made in house; host or cells: E. coli BL21(DE3)
T2 sequence (Q9H7Z6 173-458): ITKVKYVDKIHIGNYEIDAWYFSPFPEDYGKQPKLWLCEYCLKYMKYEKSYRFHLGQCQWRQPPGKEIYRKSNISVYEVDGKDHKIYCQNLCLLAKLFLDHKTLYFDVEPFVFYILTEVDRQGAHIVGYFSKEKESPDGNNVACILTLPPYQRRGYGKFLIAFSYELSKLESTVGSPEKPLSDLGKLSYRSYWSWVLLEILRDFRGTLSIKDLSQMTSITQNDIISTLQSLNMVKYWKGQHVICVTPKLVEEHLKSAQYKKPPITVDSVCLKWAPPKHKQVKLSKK
Procedure: Purified KAT8 was incubated with the relevant inhibitor (1% DMSO final) in a 2-fold serial dilution starting at 200 μM for 20 min at rt. Then, [^3H]Ac-CoA and biotinylated peptide were added to a total assay volume of 50 μL and the reaction mixture was incubated at rt for 4 h. The reaction was stopped, and the mixture was transferred to a 96-well streptavidin scintillant coated FlashPlate (Perkin Elmer) and incubated for 60 min at rt. The FlashPlate was washed with 0.1% Tween-20, and the liquid scintillation counting (MicroBeta Microplate Counter, Perkin Elmer) was employed to measure the radioactive signal. Experiments were performed in biological triplicates. Signal reduction compared to control was plotted (as inhibition percentage) as a function of compound concentration and fitted by nonlinear regression (GraphPad Prism 8.0) finally yielding the IC50 values.

HCT116 cells = experiment: MTT cell proliferation assay, HCT116; type: cell-based, human; details: 72 h treatment, MTT
Source text: as §1, §2

AHH-1 cells = experiment: Proliferation of noncancer B lymphocyte AHH-1 cells; type: cell-based, human; details: 72 h
Source text: as §1, §2

KAT3B = target: T3, KAT3B (Homo sapiens, UniProt Q09472); experiment: HotSpot KAT assay, KAT3B; type: biochemical; details: read-out: IC50 KAT3B (1 nM); enzyme 1 nM; NI = no inhibition at 200 μM; mean ± SD of three independent experiments
T3 construct: KAT3B (aa 1284–1672, 1 nM); purchased Reaction Biology Corporation
T3 sequence (Q09472 1284-1672): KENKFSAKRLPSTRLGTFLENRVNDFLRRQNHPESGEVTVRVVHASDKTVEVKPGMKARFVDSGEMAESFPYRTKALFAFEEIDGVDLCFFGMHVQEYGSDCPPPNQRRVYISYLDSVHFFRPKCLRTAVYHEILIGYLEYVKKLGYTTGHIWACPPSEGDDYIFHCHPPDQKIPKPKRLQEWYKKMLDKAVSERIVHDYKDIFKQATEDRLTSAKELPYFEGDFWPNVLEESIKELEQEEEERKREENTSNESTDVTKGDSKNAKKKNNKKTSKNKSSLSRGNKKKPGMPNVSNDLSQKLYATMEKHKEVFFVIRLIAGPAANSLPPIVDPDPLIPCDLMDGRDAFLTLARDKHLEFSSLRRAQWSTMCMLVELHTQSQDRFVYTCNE
Procedure: The effects of the compounds on other KATs were determined using the HotSpot KAT assay (Reaction Biology Corporation, Malvern, PA, USA) according to the supplier’s procedure. […] Histone peptide acetylation was assessed by liquid scintillation counting using a Tri-Carb 2800TR Liquid Scintillation Analyzer (Perkin Elmer). Experiments were performed in biological triplicates. Signal reduction compared to control was plotted (as inhibition percentage) as a function of compound concentration. In cases in which an IC50 was calculated, the values were fitted by nonlinear regression (GraphPad Prism 8.0).

U937 cells [4] = test system: U937 cells; design: method as in PMID 28202522; details: cited from earlier work

T1 sequence (Q92831 492-658): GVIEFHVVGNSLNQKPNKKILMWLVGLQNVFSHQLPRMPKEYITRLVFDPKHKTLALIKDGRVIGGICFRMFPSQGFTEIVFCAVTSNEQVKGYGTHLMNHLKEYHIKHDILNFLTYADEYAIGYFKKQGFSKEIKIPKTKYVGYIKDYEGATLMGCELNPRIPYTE

IC50 (KAT2B) | IC50 H1299, 72 h (H1299 cells) | IC50 U937, 72 h (U937 cells [1]) | IC50 A549, 72 h (A549 cells) | IC50 (KAT8) | IC50 HCT116, 72 h (HCT116 cells) | IC50 (KAT3B) | Structure (SMILES) | effect on proliferation of InEpC [2] | effect on proliferation of NHLF [3] | effect on proliferation of AHH-1 cells (AHH-1 cells; 25, 50, 100, 200 μM) | IC50 (AHH-1 cells; Homo sapiens, AHH-1, NI = no inhibition at 200 µM) | antiproliferative activity in U937 and other AML cell lines (U937 cells [4])
> 200 µM | No inhibition at 100 µM | No inhibition at 100 µM | No inhibition at 100 µM | > 200 µM | No inhibition at 100 µM | > 200 µM | CC1=NN(c2ccc(C(=O)NCc3ccccc3)cc2)C(=O)/C1=C\c1ccc[nH]1 [Compound 39, (Z)-4-(4-((1H-Pyrrol-2-yl)methylene)-3-methyl-5-oxo-4,5-dihydro-1H-pyrazol-1-yl)-N-benzylbenzamide] | did not significantly affect the proliferation | did not significantly affect the proliferation | did not significantly affect the proliferation | > 200 µM | –
> 200 µM | – | – | – | 20.3 ± 1.3 µM | – | 22.3 ± 1.1 µM | CCCCCCCc1ccc(CCc2cccc(O)c2C(=O)O)cc1 [III (MG149), reference compound] | – | – | – | – | exerted antiproliferative activity
